{"source": "patent US10800806B2", "about": "“Sterol derivatives and use thereof for treating diseases involving transformed astrocyte cells or for treating malignant haemopathies” (BETA INNOV, priority 2012, dated 2020)", "key": {"[1]": {"tested_on": "breast cancer cells (ATCC-HTB-19)", "assay": "Activity in vitro on breast cancer cells", "type": "cell-based, human", "settings": "30 μM, ethanolic form", "experimental": "They were obtained from ATCC (ref. ATCC-HTB-19). The culture medium is the same as that used for the liver cancer lines. The doubling time is 20 h. • Colon carcinoma (line HT29/219)\nThe cancer cells used are from liver (ref. ATCC-HB-8065), prostate (ref. ATCC-HTB-81), breast (ref. ATCC-HTB-19) cancer cells, and from colon cancer cells (ECACC-HT29/219) of human origin, mentioned above."}, "[2]": {"tested_on": "white blood cells from a patient suffering from CMML", "assay": "Activity in vitro on Chronic Myelomonocytic Leukaemia (CMML) cells", "type": "cell-based, human", "settings": "10 μM once, improved liposomal form, 72 h of treatment", "experimental": "The cells purified from blood samples of patients suffering from Chronic Myelomonocytic Leukaemia (CMML) were obtained by the Clinical Haematology Centre and the Biotherapy Centre of the Saint Eloi Hospital (CHU de Montpellier). Culture was carried out by the technique of seeding on a feed layer. […] The CMML cells were cultured on cell lines originating from human embryo spinal cord (17).\nThe white blood cells are isolated from a blood sample collected from a patient suffering from CMML. The cells are treated once with 10 μM of molecule 2.b in improved liposomal form 24 hours after culturing by seeding on a feed layer (17).\nThe controls are cells treated with empty liposomes: the upper left hand photograph marked with the letter A was taken after 48 h of treatment and the lower left hand photograph with the letter B after 72 h of treatment.\nFor the cells treated with 2.b, the upper right hand photograph marked with the letter C was taken after 48 h of treatment and the lower right hand photograph with the letter D after 72 h of treatment."}, "[3]": {"tested_on": "Neuroblastoma (line SH-SY5Y, ATCC-CRL-2266)", "assay": "Activity in vitro on human neuroblastomas", "type": "cell-based", "settings": "22 μM once, concentrated liposomal form, 7 days of treatment", "experimental": "They were obtained from the ATCC collection (Ref. ATCC-CRL-2266). The culture conditions are based on the recommendations in the ATCC information leaflet. • Chronic Myelomonocytic Leukaemia (CMML)\nThe neuroblastomas were treated with empty liposomes (controls) or with liposomes containing molecule 1.b or 2.b, 24 h after starting the culture. The cells are treated once with 22 μM of molecule 1.b or 22 μM of molecule 2.b. The liposomal form is concentrated.\nFor the control cells, the upper left hand photograph marked with the letter A was taken after 7 days of treatment; the lower left hand photograph marked with the letter B was taken after 28 days of treatment.\nFor the cells treated with the concentrated liposomal molecule 1.b, the photograph marked with the letter C (in the middle, at the top) was taken after 7 days of treatment and the photograph marked with the letter D (in the middle, at the bottom) after 28 days of treatment. For the cells treated with the concentrated liposomal molecule 2.b, the upper right hand photograph marked with the letter E was taken after 7 days of treatment."}, "[4]": {"tested_on": "LDH from Lactobacillus leichmannii (LL)", "assay": "Inhibition of LDH activity, in gel assay after IEF", "type": "biochemical", "settings": "ethanolic form, 36 mM", "experimental": "The measurements of the activity of LDH and of its inhibition by a routine inhibitor, oxamate (23), were validated by the spectrometric method (24) using the purified LDH of Lactobacillus leichmannii (LL) (Sigma) as standard.\n(§1) Next, the LDH activities and their inhibition were detected by the “in gel assay” technique (25). The source of activity used was LDH LL and LDH, partially purified, from human GBM lines U87-MG (LDH GBM). “In gel assay” detection was carried out after isoelectric focusing (IEF) on electrophoresis gels of the LDH LL and LDH GBM samples.\nThe mini-gels of 7.5 (T %) and of 2.6 (C %) are poured into Pi with the Ampholines (BioRad) making it possible to form a pH gradient in the range from 7 to 5 after pre-focusing in a cold chamber. The containers used are of the mini-protean 3 type (BioRad). […]\n(§2) The LDH activity is detected by the lactate/NAD/MTT/phenazine methosulphate system (formation of a precipitate of the formazan type in the IEF gel); this system is described in reference (25). […]\n(§3) The activity of LDH is detected by the “in gel assay” technique on IEF electrophoresis gels, which were described in the section “A/ PROTOCOLS 6)” (25); the precision of this technique is 0.2 unit of pH. The activity of LDH is detected by a dark blue precipitate, of the formazan type, the site where LDH activity is located."}, "[5]": {"tested_on": "partially purified LDH from human GBM lines (U87-MG)", "assay": "Inhibition of LDH activity, in gel assay after IEF", "type": "biochemical", "settings": "ethanolic form, 36 mM", "experimental": "as §1\nThe cells collected in phosphate buffer (50 mM, Ph 7.2.Pi) undergo several freeze (−20° C.)/thaw cycles and the cellular material is homogenized. After centrifugation at 10,000 g for 45 min at 4° C., the supernatant is collected and aliquots containing 10% glycerol (v:v) are frozen at −80° C. At the desired time, the aliquots, after thawing, are chromatographed on a filtration column (Biogel P-60, BioRad) prepared in Pi. The volume of gel is 9 ml and the inside diameter of the column is 0.4 cm. Elution is carried out at atmospheric pressure. […]\nas §2, §3"}}, "data": [{"smiles": "CC(=O)OC1C=C2CC(OC(=O)C3COC(C)(C)O3)CCC2(C)C2CCC3(C)C(C(C)CCCC(C)C)CCC3C12", "note": "(centres unmarked) [Molecule 2.b, 7-acetoxy-10,13-dimethyl-17-(6-methylheptan-2-yl)-2,3,4,7,8,9,10,11,12,13,14,15,16,17-tetradecahydro-1H-cyclopenta[a]phenanthren-3-yl 2,2-dimethyl-1,3-dioxolane-4-carboxylate]", "values": [{"measurement": "effect on cellular division and respiration", "setting": "[1]", "value": "no effect"}, {"measurement": "effect on cell multiplication relative to the control", "setting": "[2]", "value": "Cell multiplication is slowed considerably"}, {"measurement": "toxicity to neuroblastoma cells compared to the control cells", "setting": "[3]", "value": "no viable cell is observed"}, {"measurement": "inhibition of the enzymatic activity of LDH LL", "setting": "[4]", "value": "almost completely"}, {"measurement": "inhibition of the enzymatic activity of LDH GBM", "setting": "[5]", "value": "partially"}]}]}
